Measured values published in ChEMBL document CHEMBL3259601, “Synthesis of novel 1,2,3-triazole substituted-N-alkyl/aryl nitrone derivatives, their anti-inflammatory and anticancer activity” (Eur J Med Chem, 2014).

Tests used:
COLO 205 = test: Cytotoxicity against human COLO205 cells assessed as growth inhibition after 24 hrs by MTT assay; format: functional, cell-based; settings: COLO 205, 24 h
[1] = Antiinflammatory activity in human THP1 cells assessed as inhibition of PMA-induced IL-1beta secretion preincubated for 2 hrs followed by PMA challenge measured after 48 hrs by ELISA; format: functional, cell-based; settings: THP-1
MDA-MB-231 = test: Cytotoxicity against human MDA-MB-231 cells assessed as growth inhibition after 24 hrs by MTT assay; format: functional, cell-based; settings: MDA-MB-231, 24 h
THP-1 = test: Cytotoxicity against human THP1 cells assessed as effect on cell viability at 20 uM after 48 hrs by trypan blue exclusion assay; format: cell-based; settings: thp-1, 48 h
PC-3 [2] = test: Cytotoxicity against human PC3 cells assessed as growth inhibition after 24 hrs by MTT assay; format: functional, cell-based; settings: PC-3, 24 h
A549 = test: Cytotoxicity against human A549 cells assessed as growth inhibition after 24 hrs by MTT assay; format: functional, cell-based; settings: A549, 24 h
PC-3 [3] = test: Induction of apoptosis in human PC3 cells assessed as activation of caspase-3 using AFC conjugated Ac-DEVD as substrate measured per mg of protein at 8 uM after 24 hrs by fluorescence assay (reference value: 2115.3 +/- 83.2 FU/min); format: functional
PC-3 [4] = test: Induction of apoptosis in human PC3 cells assessed as activation of caspase-3 using AFC conjugated Ac-DEVD as substrate measured per mg of protein at 10 uM after 12 hrs by fluorescence assay (reference value: 1055.6 +/- 108.2 FU/min); format: functional
PC-3 [5] = test: Induction of apoptosis in human PC3 cells assessed as activation of caspase-3 using AFC conjugated Ac-DEVD as substrate measured per mg of protein at 10 uM after 24 hrs by fluorescence assay (reference value: 2115.3 +/- 83.2 FU/min); format: functional
PC-3 [6] = test: Induction of apoptosis in human PC3 cells assessed as activation of caspase-3 using AFC conjugated Ac-DEVD as substrate measured per mg of protein at 10 uM after 48 hrs by fluorescence assay (reference value: 2642.4 +/- 37.5 FU/min); format: functional
PC-3 [7] = test: Induction of apoptosis in human PC3 cells assessed as activation of caspase-3 using AFC conjugated Ac-DEVD as substrate measured per mg of protein at 10 uM after 36 hrs by fluorescence assay (reference value: 2192.3 +/- 115.9 FU/min); format: functional
PC-3 [8] = test: Induction of apoptosis in human PC3 cells assessed as activation of caspase-3 using AFC conjugated Ac-DEVD as substrate measured per mg of protein at 8 uM after 12 hrs by fluorescence assay (reference value: 1055.6 +/- 108.2 FU/min); format: functional
PC-3 [9] = test: Induction of apoptosis in human PC3 cells assessed as activation of caspase-3 using AFC conjugated Ac-DEVD as substrate measured per mg of protein at 8 uM after 48 hrs by fluorescence assay (reference value: 2642.4 +/- 37.5 FU/min); format: functional
PC-3 [10] = test: Induction of apoptosis in human PC3 cells assessed as activation of caspase-3 using AFC conjugated Ac-DEVD as substrate measured per mg of protein at 8 uM after 36 hrs by fluorescence assay (reference value: 2192.3 +/- 115.9 FU/min); format: functional
PC-3 [11] = test: Induction of apoptosis in human PC3 cells assessed as activation of caspase-3 using AFC conjugated Ac-DEVD as substrate measured per mg of protein measured per mg of protein at 2 uM after 24 hrs by fluorescence assay (reference value: 2115.3 +/- 83.2 FU/min); format: functional
PC-3 [12] = test: Induction of apoptosis in human PC3 cells assessed as activation of caspase-3 using AFC conjugated Ac-DEVD as substrate measured per mg of protein at 2 uM after 48 hrs by fluorescence assay (reference value: 2642.4 +/- 37.5 FU/min); format: functional
PC-3 [13] = test: Induction of apoptosis in human PC3 cells assessed as activation of caspase-3 using AFC conjugated Ac-DEVD as substrate measured per mg of protein at 2 uM after 36 hrs by fluorescence assay (reference value: 2192.3 +/- 115.9 FU/min); format: functional
PC-3 [14] = test: Induction of apoptosis in human PC3 cells assessed as activation of caspase-3 using AFC conjugated Ac-DEVD as substrate measured per mg of protein at 1 uM after 36 hrs by fluorescence assay (reference value: 2192.3 +/- 115.9 FU/min); format: functional
PC-3 [15] = test: Induction of apoptosis in human PC3 cells assessed as activation of caspase-3 using AFC conjugated Ac-DEVD as substrate measured per mg of protein at 2 uM after 12 hrs by fluorescence assay (reference value: 1055.6 +/- 108.2 FU/min); format: functional
PC-3 [16] = test: Induction of apoptosis in human PC3 cells assessed as activation of caspase-3 using AFC conjugated Ac-DEVD as substrate measured per mg of protein at 1 uM after 48 hrs by fluorescence assay (reference value: 2642.4 +/- 37.5 FU/min); format: functional
PC-3 [17] = test: Induction of apoptosis in human PC3 cells assessed as activation of caspase-3 using AFC conjugated Ac-DEVD as substrate measured per mg of protein at 1 uM after 12 hrs by fluorescence assay (reference value: 1055.6 +/- 108.2 FU/min); format: functional
PC-3 [18] = test: Induction of apoptosis in human PC3 cells assessed as activation of caspase-3 using AFC conjugated Ac-DEVD as substrate measured per mg of protein at 1 uM after 24 hrs by fluorescence assay (reference value: 2115.3 +/- 83.2 FU/min); format: functional

Row | IC50 [1] | SMILES | IC50 (COLO 205) | IC50 (MDA-MB-231) | Activity (THP-1) | IC50 (PC-3 [2]) | IC50 (A549) | further results
1 | 8.8 µM | [O-]/[N+](=C\c1cn(-c2ccccc2)nn1)c1ccccc1 | > 100 µM | > 100 µM | Non-toxic | > 100 µM | > 100 µM | 
2 | > 20 µM | [O-]/[N+](=C\c1cn(-c2ccc(F)cc2)nn1)c1ccccc1 | 10.2 µM | 9.8 µM | Non-toxic | 11.4 µM | 12.5 µM | 
3 | > 20 µM | [O-]/[N+](=C\c1cn(-c2ccc(Cl)cc2)nn1)c1ccccc1 | 9.7 µM | 8.9 µM | Non-toxic | 11.1 µM | 10.5 µM | 
4 | 9.9 µM | CCCCCCCCCCn1cc(/C=[N+](\[O-])c2ccccc2)nn1 | > 100 µM | > 100 µM | Non-toxic | > 100 µM | > 100 µM | 
5 | 11.7 µM | [O-]/[N+](=C\c1cn(CCC(F)(F)C(F)(F)C(F)(F)C(F)(F)C(F)(F)C(F)(F)C(F)(F)C(F)(F)F)nn1)c1ccccc1 | > 100 µM | > 100 µM | Non-toxic |  | 86.8 µM | 
6 | 8 µM | [O-]/[N+](=C\c1cn(-c2ccccc2)nn1)Cc1ccccc1 | > 100 µM | > 100 µM | Non-toxic |  | > 100 µM | 
7 | 9.7 µM | [O-]/[N+](=C\c1cn(-c2ccc(F)cc2)nn1)Cc1ccccc1 | > 100 µM | > 100 µM | Non-toxic | > 100 µM | > 100 µM | 
8 | 17.3 µM | COc1ccc(-n2cc(/C=[N+](\[O-])Cc3ccccc3)nn2)cc1 | > 100 µM | > 100 µM | Non-toxic | > 100 µM | > 100 µM | 
9 | 15.4 µM | [O-]/[N+](=C\c1cn(-c2ccc(C(F)(F)F)cc2)nn1)Cc1ccccc1 | > 100 µM | > 100 µM | Non-toxic | > 100 µM | > 100 µM | 
10 | 13.1 µM | CCCCCCCCn1cc(/C=[N+](\[O-])Cc2ccccc2)nn1 | > 100 µM | > 100 µM | Non-toxic | > 100 µM | > 100 µM | 
11 | 15.6 µM | CCCCCCCCCCn1cc(/C=[N+](\[O-])Cc2ccccc2)nn1 | > 100 µM | > 100 µM | Non-toxic | > 100 µM | > 100 µM | 
12 | 12.1 µM | [O-]/[N+](=C\c1cn(CCC(F)(F)C(F)(F)C(F)(F)C(F)(F)C(F)(F)C(F)(F)F)nn1)Cc1ccccc1 | > 100 µM | > 100 µM | Non-toxic | > 100 µM | > 100 µM | 
13 | 17 µM | [O-]/[N+](=C\c1cn(CCC(F)(F)C(F)(F)C(F)(F)C(F)(F)C(F)(F)C(F)(F)C(F)(F)C(F)(F)F)nn1)Cc1ccccc1 | 9.4 µM | 8.4 µM | Non-toxic | 8.1 µM | 8.8 µM | Activity (PC-3 [3]): 3148.5 FU/min; Activity (PC-3 [4]): 2541.4 FU/min; Activity (PC-3 [5]): 3802.2 FU/min; Activity (PC-3 [6]): 4700.5 FU/min; Activity (PC-3 [7]): 4082.5 FU/min; Activity (PC-3 [8]): 2473.2 FU/min; Activity (PC-3 [9]): 4280.8 FU/min; Activity (PC-3 [10]): 3396.8 FU/min
14 | > 20 µM | CC(C)(C)/[N+]([O-])=C/c1cn(-c2ccccc2)nn1 | 15.2 µM | 14.8 µM | Non-toxic | 15.4 µM | 17.4 µM | 
15 | 14 µM | CC(C)(C)/[N+]([O-])=C/c1cn(-c2ccc(F)cc2)nn1 | 58.9 µM | 66.4 µM | Non-toxic | 72.1 µM | 87 µM | 
16 | 13.5 µM | COc1ccc(-n2cc(/C=[N+](\[O-])C(C)(C)C)nn2)cc1 | 19.8 µM | 23.1 µM | Non-toxic | 23.8 µM | 23.7 µM | 
17 | 14.4 µM | CC(C)(C)/[N+]([O-])=C/c1cn(-c2ccc(C(F)(F)F)cc2)nn1 | 44.7 µM | 48.2 µM | Non-toxic | 42 µM | 43.6 µM | 
18 | 7.9 µM | CCCCCCCCn1cc(/C=[N+](\[O-])C(C)(C)C)nn1 | 30.8 µM | 29.7 µM | Non-toxic | 24.6 µM | 31.3 µM | 
19 | 20 µM | CCCCCCCCCCn1cc(/C=[N+](\[O-])C(C)(C)C)nn1 | 22.1 µM | 20.8 µM | Non-toxic | 19.8 µM | 24.8 µM | 
20 | 8.1 µM | CC(C)(C)/[N+]([O-])=C/c1cn(CCC(F)(F)C(F)(F)C(F)(F)C(F)(F)C(F)(F)C(F)(F)F)nn1 | 9.5 µM | 9.8 µM | Non-toxic | 11.2 µM | 11.5 µM | 
21 | 15 µM | CC(C)(C)/[N+]([O-])=C/c1cn(CCC(F)(F)C(F)(F)C(F)(F)C(F)(F)C(F)(F)C(F)(F)C(F)(F)C(F)(F)F)nn1 | 28.8 µM | 29.7 µM | Non-toxic | 25.7 µM | 30.5 µM | 
22 |  | COc1cccc2c1C(=O)c1c(O)c3c(c(O)c1C2=O)C[C@@](O)(C(=O)CO)C[C@@H]3O[C@H]1C[C@H](N)[C@H](O)[C@H](C)O1 [DOXORUBICIN] |  |  |  | 0.6 µM |  | Activity (PC-3 [11]): 4007.5 FU/min; Activity (PC-3 [12]): 7240.4 FU/min; Activity (PC-3 [13]): 4994.1 FU/min; Activity (PC-3 [14]): 4794.2 FU/min; Activity (PC-3 [15]): 3331.1 FU/min; Activity (PC-3 [16]): 6690.3 FU/min; Activity (PC-3 [17]): 3033.7 FU/min; Activity (PC-3 [18]): 3791.8 FU/min
23 | 18 µM | CN1C(C(=O)Nc2ccccn2)=C(O)c2ccccc2S1(=O)=O [PIROXICAM] |  |  |  |  |  | 
